# Assay results reported in the supplement of paper PMC4932681.
# Columns and labels:
# Experiment in all cases: viability inhibition at highest dose (% inhibition); higher = more growth inhibition
# T-47D = conditions: 72 h
# Method: (§1)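 Percent inhibition of viability (CellTiter-Glo, 72 h) at the highest tested concentration (D5), normalised to DMSO (0%) and 100 µM benzethonium chloride (100%). Resistant lines and the 'in 1µM tamoxifen' arms were tested in 1 µM 4-OH-tamoxifen.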
# ZR-75-1 Tam1 = conditions: 4-OH-tamoxifen in medium 1 µM; 72 h
# Method: as §1
# T-47D Tam2 = conditions: 4-OH-tamoxifen in medium 1 µM; 72 h
# Method: as §1
# MCF-7 Tam1 = conditions: 4-OH-tamoxifen in medium 1 µM; 72 h
# Method: as §1
# BT-474 = conditions: 72 h
# Method: as §1
# T-47D Tam1 = conditions: 4-OH-tamoxifen in medium 1 µM; 72 h
# Method: as §1
# MCF-7 = conditions: 72 h
# Method: as §1
# ZR-75-1 Tam2 = conditions: 4-OH-tamoxifen in medium 1 µM; 72 h
# Method: as §1
# ZR-75-1 = conditions: 72 h
# Method: as §1
# BT-474 Tam1 = conditions: 4-OH-tamoxifen in medium 1 µM; 72 h
# Method: as §1
# BT-474 Tam2 = conditions: 4-OH-tamoxifen in medium 1 µM; 72 h
# Method: as §1
Structure (SMILES),viability inhibition at highest dose (T-47D; 4-OH-tamoxifen in medium 0 µM),viability inhibition at highest dose (T-47D; 4-OH-tamoxifen in medium 1 µM),viability inhibition at highest dose (ZR-75-1 Tam1),viability inhibition at highest dose (T-47D Tam2),viability inhibition at highest dose (MCF-7 Tam1),viability inhibition at highest dose (BT-474; 4-OH-tamoxifen in medium 0 µM),viability inhibition at highest dose (BT-474; 4-OH-tamoxifen in medium 1 µM),viability inhibition at highest dose (T-47D Tam1),viability inhibition at highest dose (MCF-7; 4-OH-tamoxifen in medium 0 µM),viability inhibition at highest dose (MCF-7; 4-OH-tamoxifen in medium 1 µM),viability inhibition at highest dose (ZR-75-1 Tam2),viability inhibition at highest dose (ZR-75-1; 4-OH-tamoxifen in medium 0 µM),viability inhibition at highest dose (ZR-75-1; 4-OH-tamoxifen in medium 1 µM),viability inhibition at highest dose (BT-474 Tam1),viability inhibition at highest dose (BT-474 Tam2)
CCCCC/C=C/C=C1/C(=O)C=C[C@@H]1C/C=C\CCCC(=O)O [15D-PGJ2] (drug 800 nM),-18.6,-6.02,-1.15,19.6,-5.28,-7.22,-14.5,0.0444,-3.98,-2.34,-2.77,-12.7,5.41,-6.35,-6.87
O=C(CCCCCCC(=O)Nc1ccccc1)NO [Vorinostat] (drug 10000 nM),87.5,88.9,38.9,41.9,23.1,76.5,92.9,58.5,83.5,80.9,37.8,37.5,32.9,91.2,86.8
C#Cc1cccc(Nc2ncnc3cc(OC)c(OCCCCCCC(=O)NO)cc23)c1 [CUDC-101] (drug 10000 nM),95.1,94.8,42.4,76.8,48.3,93.9,97,88.4,89.6,94.5,54.5,42.7,51.5,95.6,94.4
CCCC(CCC)C(=O)O [Valproic acid] (drug 10000 nM),-15.5,12.5,3.1,24.2,1.78,-9.64,-2.48,1.44,-31.2,-5.39,-3.03,-14.3,1.2,4.24,-2.85
C=CCN(/C=C1/C(=O)O[C@H](COC)[C@@]2(C)C1=C(O)C(=O)C1=C2[C@H](OC(C)=O)C[C@]2(C)C(=O)CC[C@@H]12)CC=C [Sonolisib (PX-866)] (drug 10000 nM),-6.68,0.837,15.2,9.95,-2.1,-6.97,-17.3,9.15,-6.01,11.3,13.3,7.54,18.1,-5.08,-8.14
S=c1[nH]cnc2nc[nH]c12 [Mercaptopurine] (drug 10000 nM),3.17,-0.759,35.5,12.1,11.9,3.7,13.8,11.9,18.1,27.8,18,39.5,6.71,3.48,6.87
CO[C@@H](C(=O)N1Cc2[nH]nc(NC(=O)c3ccc(N4CCN(C)CC4)cc3)c2C1)c1ccccc1 (drug 10000 nM),29.4,17.6,-23.1,34.4,8.32,-18.6,-36.3,38.4,20.9,7.45,-19.5,-27.9,-21.1,-17.9,-18.2
CCCCCCCCc1ccc(CCC(N)(CO)CO)cc1 [Fingolimod] (drug 10000 nM),69.4,91.9,45.3,59.1,11.9,94.4,96.6,62.4,94.6,71.4,55.5,40.8,52.5,96.8,95.2
C[C@]12CC[C@@H]3c4ccc(OC(=O)N(CCCl)CCCl)cc4CC[C@H]3[C@@H]1CC[C@@H]2O [Estramustine] (drug 990000 nM),-27.1,-3.37,0.469,4.35,-4.18,-9.96,-0.556,-1.27,-17,-12.1,-3.72,-4.2,3.75,-8.94,1.08
CCS(=O)(=O)c1cccc(-c2cc(C(=O)NC3CCN(C)CC3)c(C)c3[nH]c4ncc(C)cc4c23)c1 [TAK-901] (drug 1000 nM),40.7,18.2,-9.15,34.6,9.8,-6.02,30.4,66.5,16.5,24.8,-10.7,-12.6,-15.9,30.7,25.1
CCCCCOC(=O)Nc1nc(=O)n([C@@H]2O[C@H](C)[C@@H](O)[C@H]2O)cc1F [Capecitabine] (drug 10000 nM),-17.6,-17,11.1,2.81,-12,-9.89,-7.23,1.61,-4.69,-0.939,7.55,24.8,0.654,0.103,-6.54
